A value given as a limit tells only on which side of the number the result lay.

Chain of DOT1L(1-416) (Q8TEK3 1-416): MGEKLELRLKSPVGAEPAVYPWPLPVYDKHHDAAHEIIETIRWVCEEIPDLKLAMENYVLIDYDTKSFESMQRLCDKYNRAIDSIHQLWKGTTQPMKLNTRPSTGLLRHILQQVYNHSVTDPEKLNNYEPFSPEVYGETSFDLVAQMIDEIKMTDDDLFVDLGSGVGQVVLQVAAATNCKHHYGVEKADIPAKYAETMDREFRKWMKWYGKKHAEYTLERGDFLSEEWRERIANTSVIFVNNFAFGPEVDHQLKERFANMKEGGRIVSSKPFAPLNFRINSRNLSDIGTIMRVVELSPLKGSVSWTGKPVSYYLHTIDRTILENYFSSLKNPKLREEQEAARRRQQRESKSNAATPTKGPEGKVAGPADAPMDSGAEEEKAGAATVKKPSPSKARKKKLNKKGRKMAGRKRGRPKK

This assay has as its target DOT1L(1-416) (Homo sapiens, UniProt Q8TEK3). Kind of assay: Determination of IC50: DOT1L(1-416) methyltransferase assay, 3H-SAM, oligonucleosome substrate, Flashplate. The following applies: class symbols; read-out: DOT1L IC50. The assay is classed as biochemical. On the procedure:
Determination of IC50. Test compounds were serially diluted 3 fold in DMSO for 10 points and 1 μl was plated in a 384 well microtiter plate. […] 10 μl per well of substrate mix (same assay buffer with 200 nM S-[methyl-^3H]-adenosyl-L methionine, 600 nM of unlabeled […], and 20 nM oligonueleosome) was added to initiate the reaction. Reaction was incubated for 120 minutes at room temperature and quenched with 10 μl per well of 100 μM S-methyl-adenosyl-L methionine. For detection, substrate from 50 μl of reaction was immobilized on a 384 well Streptavidin coated Flashplate (Perkin Elmer) (also coated with 0.2% polyethyleneimine) and read on a Top Count scintillation counter (Perkin Elmer).
For `CCN(C[C@H]1C[C@@H](n2ccc3c(N)ncnc32)[C@H](O)[C@@H]1O)[C@H]1C[C@H](CCc2nc3cc(C(C)(C)C)ccc3[nH]2)C1` [Compound 49, (1R,2S,3R,5R)-3-(4-amino-7H-pyrrolo[2,3-d]pyrimidin-7-yl)-5-((((1s,3R)-3-(2-(5-(tert-butyl)-1H-benzo[d]imidazol-2-yl)ethyl)cyclobutyl)(ethyl)amino)methyl)cyclopentane-1,2-diol], the IC50 (usually the point on the concentration scale where inhibition reaches its midpoint) is less than 100 nM. Next, `CCN(C[C@H]1O[C@@H](n2ccc3c(N)ncnc32)[C@H](O)[C@@H]1O)[C@H]1C[C@@H](CCc2nc3cc(C(C)(C)C)ccc3[nH]2)C1` [Compound 89, (2R,3R,4S,5R)-2-(4-amino-7H-pyrrolo[2,3-d]pyrimidin-7-yl)-5-((((1r,3S)-3-(2-(5-(tert-butyl)-1H-benzo[d]imidazol-2-yl)ethyl)cyclobutyl) (ethyl)amino)methyl) tetrahydrofuran-3,4-diol]: less than 100 nM; `CN(C[C@H]1O[C@@H](n2cnc3c(N)ncnc32)[C@H](O)[C@@H]1O)C1CC(CNC(=O)Nc2ccc(C(C)(C)C)cc2)C1` (stereo partly drawn) [Compound 110, 1-((3-((((2R,3S,4R,5R)-5-(6-amino-9H-purin-9-yl)-3,4-dihydroxytetrahydrofuran-2-yl)methyl)(methyl)amino)cyclobutyl)methyl)-3-(4-(tert-butyl)phenyl)urea]: less than 100 nM; `CN(C[C@H]1O[C@@H](n2cnc3c(N)ncnc32)[C@H](O)[C@@H]1O)[C@H]1C[C@@H](CCc2nc3cc(C(C)(C)C)ccc3[nH]2)C1` [Compound 71, (2R,3R,4S,512)-2-(6-amino-9H-purin-9-yl)-5-((((1r,3S)-3-(2-(5-(tert-butyl)-1H-benzo[d]imidazol-2-yl)ethyl)cyclobutyl)(methyl)amino)methyl)tetrahydrofuran-3,4-diol]: less than 100 nM.

In the case of `CC(C)N(C[C@H]1O[C@@H](n2cnc3c(N)ncnc32)[C@H](O)[C@@H]1O)[C@H]1C[C@@H](CCc2nc3cc(C(C)(C)C#N)ccc3[nH]2)C1` [Compound 128, 2-(2-(2-((1S,3r)-3-((((2R,3S,4R,5R)-5-(6-amino-9H-purin-9-yl)-3,4-dihydroxytetrahydro-furan-2-yl)methyl)(isopropyl)amino)cyclobutyl)ethyl)-1H-benzo[d]imidazol-5-yl)-2-methylpropanenitrile], the concentration for half-maximal inhibition (IC50) was less than 100 nM. As to `CN(C[C@H]1O[C@@H](n2cnc3c(N)ncnc32)[C@H](O)[C@@H]1O)[C@H]1C[C@@H](CCc2nc3cc(C4(C)CCC4)ccc3[nH]2)C1` [Compound 30, (2R,3R,4S,5R)-2-(6-amino-9H-purin-9-yl)-5-((methyl((1r,3S)-3-(2-(5-(1-methylcyclobutyl)-1H-benzo[d]imidazol-2-yl)ethyl)cyclobutyl)amino)methyl)tetrahydrofuran-3,4-diol], the IC50 was less than 100 nM.

As for `CN(C[C@H]1O[C@@H](n2cnc3c(N)ncnc32)[C@H](O)[C@@H]1O)[C@H]1C[C@H](CCc2nc3cc(C4CC4)ccc3[nH]2)C1` [Compound 134, (2R,3R,4S,5R)-2-(6-amino-9H-purin-9-yl)-5-((((1s,3R)-3-(2-(5-cyclopropyl-1H-benzo[d]imidazol-2-yl)ethyl)cyclobutyl) (methyl)amino)methyl) tetrahydrofuran-3,4-diol], the IC50 was less than 100 nM. With `CN(C[C@H]1O[C@@H](n2cnc3c(N)ncnc32)[C@H](O)[C@@H]1O)C1CC(NC(=O)Nc2ccc(C(C)(C)C)cc2)C1` (stereo partly drawn) [Compound 8, 1-(3-((((2R,3S,4R,5R)-5-(6-amino-9H-purin-9-yl)-3,4-dihydroxytetrahydrofuran-2-yl)methyl)(methyl)amino)cyclobutyl)-3-(4-(tert-butyl)phenyl)urea], the IC50 is 10000 to 50000 nM. Regarding `CCN(C[C@H]1O[C@@H](n2cnc3c(N)ncnc32)[C@H](O)[C@@H]1O)C1CC(CCc2nc3cc(C(C)(C)C)ccc3[nH]2)C1` (stereo partly drawn) [Compound 79, (2R,3R,4S,5R)-2-(6-amino-9H-purin-9-yl)-5-(((3-(2-(5-(tert-butyl)-1H-benzo[d]imidazol-2-yl)ethyl)cyclobutyl) (ethyl)amino)methyl) tetrahydrofuran-3,4-diol], the IC50 was less than 100 nM. In the case of `COCC(C)(C)c1ccc2[nH]c(CC[C@H]3C[C@@H](N(C[C@H]4O[C@@H](n5cnc6c(N)ncnc65)[C@H](O)[C@@H]4O)C(C)C)C3)nc2c1` [Compound 122, (2R,3R,4S,5R)-2-(6-amino-9H-purin-9-yl)-5-((isopropyl((1r,3S)-3-(2-(5-(1-methoxy-2-methylpropan-2-yl)-1H-benzo[d]imidazol-2-yl)ethyl)cyclobutyl)amino)methyl) tetrahydrofuran-3,4-diol], the IC50 was less than 100 nM. Regarding `COCC(C)(C)c1ccc2[nH]c(CCC3CC(N(C)C[C@H]4O[C@@H](n5cnc6c(N)ncnc65)[C@H](O)[C@@H]4O)C3)nc2c1` (stereo partly drawn) [Compound 140, (2R,3R,4S,5R)-2-(6-amino-9H-purin-9-yl)-5-(((3-(2-(5-(1-methoxy-2-methylpropan-2-yl)-1H-benzo[d]imidazol-2-yl)ethyl)cyclobutyl) (methyl)amino)methyl) tetrahydrofuran-3,4-diol], the 50% inhibitory concentration (IC50) is less than 100 nM. As for `CCN(C[C@H]1O[C@@H](n2cnc3c(N)ncnc32)[C@H](O)[C@@H]1O)[C@H]1C[C@@H](CCc2nc3cc(C(C)(C)C)ccc3[nH]2)C1` [Compound 73, (2R,3R,4S,5R)-2-(6-amino-9H-purin-9-yl)-5-((((1r,35)-3-(2-(5-(tert-butyl)-1H-benzo[d]imidazol-2-yl)ethyl)cyclobutyl)(ethyl)amino)methyl)tetrahydrofuran-3,4-diol], the half-maximal inhibitory concentration (IC50) was less than 100 nM. For the compound `CN(C[C@H]1O[C@@H](n2ccc3c(N)ncnc32)[C@H](O)[C@@H]1O)C1CC(Cc2nc3cc(C(C)(C)C)ccc3[nH]2)C1` (stereo partly drawn) [Compound 6, (2R,3R,4S,5R)-2-(4-amino-7H-pyrrolo[2,3-d]pyrimidin-7-yl)-5-(((3-((5-(tert-butyl)-1H-benzo[d]imidazol-2-yl)methyl)cyclobutyl)(methyl)amino)methyl)tetrahydrofuran-3,4-diol], the 50% inhibitory concentration (IC50) was less than 100 nM. The figure for `CN(C[C@H]1O[C@@H](n2ccc3c(N)ncnc32)[C@H](O)[C@@H]1O)[C@H]1C[C@@H](CCc2nc3cc(OC(F)(F)F)ccc3[nH]2)C1` [Compound 94, (2R,3R,4S,5R)-2-(4-amino-7H-pyrrolo[2,3-d]pyrimidin-7-yl)-5-((methyl((1r,3S)-3-(2-(5-(trifluoromethoxy)-1H-benzo[d]imidazol-2-yl)ethyl)cyclobutyl)amino)methyl) tetrahydrofuran-3,4-diol] is less than 100 nM; for `CN(C[C@H]1C[C@@H](n2ccc3c(N)ncnc32)[C@H](O)[C@@H]1O)C1CC(CCc2nc3cc(C4COC4)ccc3[nH]2)C1` (stereo partly drawn) [Compound 62, (1R,2S,3R,5R)-3-(4-amino-7H-pyrrolo[2,3-d]pyrimidin-7-yl)-5-((methyl(3-(2-(5-(oxetan-3-yl)-1H-benzo[d]imidazol-2-yl)ethyl)cyclobutyl)amino)methyl)cyclopentane-1,2-diol] it is 100 to 1000 nM.

As for `CN(C[C@H]1O[C@@H](n2cnc3c(N)ncnc32)[C@H](O)[C@@H]1O)C1CC(CCc2nc3cc(C4(C#N)CC4)ccc3[nH]2)C1` (stereo partly drawn) [Compound 130, 1-(2-(2-(3-((((2R,3S,4R,5R)-5-(6-amino-9H-purin-9-yl)-3,4-dihydroxytetrahydro-furan-2-yl)methyl)(methyl)amino)cyclobutyl)ethyl)-1H-benzo[d]imidazol-5-yl)cyclo-propanecarbonitrile], the 50% inhibitory concentration (IC50) was less than 100 nM. Turning to `CN(C[C@H]1O[C@@H](n2cnc3c(N)ncnc32)[C@H](O)[C@@H]1O)[C@H]1C[C@H](CCc2nc3cc(C4(C)CCC4)ccc3[nH]2)C1` [Compound 34], the IC50 is less than 100 nM. Consider `CN(C[C@H]1O[C@@H](n2cnc3c(N)ncnc32)[C@H](O)[C@@H]1O)[C@H]1C[C@@H](CCc2nc3cc(C4CC4)ccc3[nH]2)C1` [Compound 133, (2R,3R,4S,5R)-2-(6-amino-9H-purin-9-yl)-5-((((1r,3S)-3-(2-(5-cyclopropyl-1H-benzo[d]imidazol-2-yl)ethyl)cyclobutyl) (methyl)amino)methyl) tetrahydrofuran-3,4-diol], for which the IC50 is less than 100 nM. The figure for `CN(C[C@H]1C[C@@H](n2ccc3c(N)ncnc32)[C@H](O)[C@@H]1O)[C@H]1C[C@H](CCc2nc3cc(C(F)(F)F)c(Cl)cc3[nH]2)C1` [Compound 12, (1R,2S,3R,5R)-3-(4-amino-7H-pyrrolo[2,3-d]pyrimidin-7-yl)-5-((((1s,3R)-3-(2-(6-chloro-5-(trifluoromethyl)-1H-benzo[d]imidazol-2-yl)ethyl)cyclobutyl)(methyl)amino)methyl)cyclopentane-1,2-diol] is less than 100 nM; for `CC(C)N(C[C@H]1O[C@@H](n2cnc3c(N)ncnc32)[C@H](O)[C@@H]1O)[C@H]1C[C@@H](CCc2nc3cc(C4CC4)ccc3[nH]2)C1` [Compound 116, (2R,3R,4S,5R)-2-(6-amino-9H-purin-9-yl)-5-((((1r,3S)-3-(2-(5-cyclopropyl-1H-benzo[d]imidazol-2-yl)ethyl)cyclobutyl) (isopropyl)amino)methyl)tetrahydrofuran-3,4-diol] it is less than 100 nM. Next, `COCC(C)(C)c1ccc2[nH]c(CC[C@H]3C[C@H](N(C[C@H]4O[C@@H](n5cnc6c(N)ncnc65)[C@H](O)[C@@H]4O)C(C)C)C3)nc2c1` [Compound 121, (2R,3R,4S,5R)-2-(6-amino-9H-purin-9-yl)-5-((isopropyl((1s,3R)-3-(2-(5-(1-methoxy-2-methylpropan-2-yl)-1H-benzo[d]imidazol-2-yl)ethyl)cyclobutyl)amino)methyl) tetrahydrofuran-3,4-diol]: less than 100 nM.

These data come from patent US8580762B2, “Substituted purine and 7-deazapurine compounds” (Epizyme, Inc., priority 2010, dated 2013).
